# Earlier results in patent US20120028943A1, “Medicinal Cream Made Using Fluticasone Propionate And Chitosan And A Process To Make The Same” (APEX LABORATORIES PRIVATE LIMITED, priority 2009, published 2012).
# Legend:
# [1] = target: T1, human glucocorticoid receptors (Homo sapiens, UniProt P04150)
# T1 sequence (P04150 1-777): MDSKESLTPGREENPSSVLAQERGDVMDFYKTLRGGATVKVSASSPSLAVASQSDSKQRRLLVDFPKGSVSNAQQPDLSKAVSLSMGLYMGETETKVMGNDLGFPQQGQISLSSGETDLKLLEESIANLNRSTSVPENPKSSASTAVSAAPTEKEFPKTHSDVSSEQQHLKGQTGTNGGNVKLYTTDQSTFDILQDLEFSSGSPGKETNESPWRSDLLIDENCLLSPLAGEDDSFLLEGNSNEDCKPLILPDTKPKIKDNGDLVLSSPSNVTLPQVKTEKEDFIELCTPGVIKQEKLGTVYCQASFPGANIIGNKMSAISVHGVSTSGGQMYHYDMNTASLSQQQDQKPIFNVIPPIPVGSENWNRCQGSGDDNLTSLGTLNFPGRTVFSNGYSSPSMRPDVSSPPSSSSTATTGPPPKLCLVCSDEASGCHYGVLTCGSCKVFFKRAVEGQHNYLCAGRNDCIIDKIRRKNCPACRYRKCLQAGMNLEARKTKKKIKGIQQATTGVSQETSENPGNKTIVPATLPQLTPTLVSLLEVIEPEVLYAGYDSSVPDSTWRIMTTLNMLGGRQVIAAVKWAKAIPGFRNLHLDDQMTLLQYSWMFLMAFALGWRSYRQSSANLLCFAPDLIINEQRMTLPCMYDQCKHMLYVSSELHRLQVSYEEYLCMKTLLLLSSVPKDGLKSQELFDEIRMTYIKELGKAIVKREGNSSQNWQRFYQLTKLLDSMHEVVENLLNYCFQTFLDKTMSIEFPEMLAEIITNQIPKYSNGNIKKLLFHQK
# human transcortin = target: T2, human transcortin (Homo sapiens, UniProt P08185)
# T2 sequence (P08185 23-405): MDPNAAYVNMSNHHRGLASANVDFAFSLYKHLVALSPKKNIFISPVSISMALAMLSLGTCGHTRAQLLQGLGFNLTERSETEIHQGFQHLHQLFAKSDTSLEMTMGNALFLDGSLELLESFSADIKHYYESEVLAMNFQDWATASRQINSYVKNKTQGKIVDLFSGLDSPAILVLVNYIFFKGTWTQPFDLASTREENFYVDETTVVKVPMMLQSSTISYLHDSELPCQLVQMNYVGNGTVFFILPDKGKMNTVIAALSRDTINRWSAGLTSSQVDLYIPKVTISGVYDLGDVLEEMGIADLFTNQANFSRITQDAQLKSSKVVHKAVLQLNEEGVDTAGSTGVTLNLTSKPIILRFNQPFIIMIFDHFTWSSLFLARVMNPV
# human plasma proteins = settings: averaged
# cytochrome P450 3A4 = cytochrome P450 3A4 (Homo sapiens, UniProt P08684); settings: liver
# [2] = target: T1, human glucocorticoid receptors; settings: in vitro
# [3] = not given; remark: listed apart in the source
# [4] = test system: HPA (hypothalamic-pituitary-adrenal)-axis; settings: after dermal administration
# Chain of cytochrome P450 3A4 (P08684 whole entry): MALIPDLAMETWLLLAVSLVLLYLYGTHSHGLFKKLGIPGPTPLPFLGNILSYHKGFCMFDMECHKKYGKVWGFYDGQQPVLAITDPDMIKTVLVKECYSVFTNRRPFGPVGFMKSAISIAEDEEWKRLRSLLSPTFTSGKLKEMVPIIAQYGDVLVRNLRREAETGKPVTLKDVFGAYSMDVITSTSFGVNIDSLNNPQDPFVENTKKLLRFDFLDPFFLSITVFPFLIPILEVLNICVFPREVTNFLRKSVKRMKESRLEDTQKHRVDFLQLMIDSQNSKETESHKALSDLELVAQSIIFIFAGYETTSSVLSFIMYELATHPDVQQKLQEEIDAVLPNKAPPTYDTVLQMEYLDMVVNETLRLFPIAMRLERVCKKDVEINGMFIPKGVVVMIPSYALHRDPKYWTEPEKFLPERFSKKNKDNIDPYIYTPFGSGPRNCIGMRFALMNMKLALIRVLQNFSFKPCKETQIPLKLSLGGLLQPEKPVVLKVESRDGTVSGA
smiles,measurement,setting,value
"CCC(=O)O[C@]1(C(=O)SCF)[C@H](C)C[C@H]2[C@@H]3C[C@H](F)C4=CC(=O)C=C[C@]4(C)[C@@]3(F)[C@@H](O)C[C@@]21C [Fluticasone propionate, S-(fluoromethyl)6α,9-difluoro-11β-17-dihydroxy-16α-methyl-3-oxoandrosta-1,4-diene-17β-carbothioate, 17-propionate]",topical anti-inflammatory potency,,high
same,selectivity to the glucocorticoid receptor,[1],high degree of selectivity
same,affinity for human glucocorticoid receptors,[1]; in vitro,strong affinity
same,binding to human transcortin,human transcortin,not significantly hound
same,percentage bound to human plasma proteins,human plasma proteins,91%
same,binding to erythrocytes,erythrocytes,weakly and reversibly bound
same,metabolism,cytochrome P450 3A4,metabolized in the liver by cytochrome P450 3A4-mediated hydrolysis
same,agonist activity at human glucocorticoid receptors,[2],agonist activity
same,solubility in 95% ethanol,[3]; 95% ethanol,slightly soluble
same,solubility in dimethyl sulfoxide,[3]; dimethyl sulfoxide,freely soluble
same,solubility in dimethylformamide,[3]; dimethylformamide,freely soluble
same,solubility in methanol,[3]; methanol,slightly soluble
same,solubility in water,[3]; water,practically insoluble
same,HPA-axis suppressive activity,[4],low
